Assay [1] addresses PCP receptors. Briefly: Phencyclidine (PCP) receptor binding assay with [3H]TCP. Conditions: guinea pig brain; determined in independent experiments.
For assay [2], the system named is dynorphin A induced spinal cord injury model. Briefly: Dynorphin A induced spinal cord injury model (hindlimb motor function). The format is in vivo, rat. From the text: Neuroprotective properties of BD-1008 and selected compounds of this invention have been evaluated in the dynorphin A induced spinal cord injury model. Along with several other neuropeptides, dynorphin A has potent vasoconstrictory effects on the vasculature of the rat brain and spinal cord; thus it provides a convenient, reproducible pharmacological means to induce and study ischemic central nervous system injury. Furthermore, localized effects of this peptide on the lumbosacral spinal cord following L4-L5 intervertebral injection allows for simple and straightforward neurological appraisals through assessment of hindlimb motor function.

Assay [3] has as its target Sigma receptors. Briefly: Sigma receptor binding assay with [3H]-(+)-3-PPP, crude P2 membranes. The conditions noted are these: guinea pig brain membranes; determined in independent experiments. The protocol: Sigma receptors were labeled with [^3H]-(+)-3-PPP (109 Ci/mmol).
For most compounds in the study, a concentration range of 0.0005-100 nM was appropriate. […] Twelve concentrations of unlabelled ligand were incubated with 3 nM [^3H](+)-3-PPP as described in Methods. The CDATA iterative curve fitting program (EMF Software, Inc., Baltimore, MD) was used to determine IC50 values. Values are the average of 2-4 experiments, ±SEM. Each experiment was carried out in duplicate. The Cheng-Prussoff equation^27 was then used to convert IC50 values to apparent Ki values.

Turning to `c1csc(C2(N3CCCCC3)CCCCC2)c1` [[^3H]TCP], the Kd (commonly the free concentration of one partner at which half of the binding sites on the other are occupied at equilibrium, for simple one-to-one binding) in assay [1] is 0.025 µM.
Consider `CN(CCc1ccc(Cl)c(Cl)c1)CCN1CCCC1` [BD-1008], for which, in assay [2] (dynorphin A-induced reduction in lumbosacral blood flow), the “impact on the primary vascular responses to dynorphin A” value is “without any measurable impact”. Besides, in assay [2] (paralysis from a 20 nanomole dose of dynorphin A, L4-L5 intervertebral injection), the “neurological recovery from the flaccid hindlimb paralysis” value is “significantly improves neurological recovery”.
`CCCN1CCC[C@H](c2cccc(O)c2)C1` [[^3H]-(+)-3-PPP]: the affinity in assay [3], expressed as Kd, was 0.0274 µM.

(Values after EP0518216A2, “N-/Arylethyl/-N-alkyl-2-(1-pyrrolidinyl)ethylamine derivatives for CNS disorders” (G.D. Searle & Co., priority 1991, dated 1992).)
